Experimental data from patent US3958011A, “Compositions of tri-n-propylacetic acid and salts thereof and treatment of neurological disorders with such compositions” (priority 1972, dated 1976).

Legend:
[1] = Rota rod test (neurotoxicity); type: in vivo; conditions: mouse, ip, mice, intraperitoneal, 30 min after administration, read-out: NTD50 (neurotoxic dose 50) in the rota rod test
Method: The test used was that known as the rota rod test (BOISSIER-Therapie 1958, XIII, pp. 1074-1118). This test aims at enabling the animals' ability to coordinate their movements to be evaluated. It is carried out on batches of 10 mice each weighing about 25 g. The compound to be tested is administered by intraperitoneal route to the animals of each batch so that each batch receives a higher dose than that given to the preceding batch. Thirty minutes after administration, the mice are placed for two minutes on a wooden roller of 4.8 cm diameter which turns at the rate of 4 revolutions per minute. The roller has a rough surface to prevent the animals from slipping.
By this means, the neurotoxic dose 50 (NTD 50) can be determined, i.e. the dose of the compound with which one half of the animals can no longer stay on the roller during the period of time fixed as the reference period.
In order to obtain an activity index figure 30 minutes after administration the rota rod test described above was also performed using for comparison a known myorelaxant, namely mephenesin.

mice [2] = assay: Traction test (myorelaxant properties); type: in vivo, mice (OF 1)
Method: This test enables sense of balance as well as muscular tonus and strength to be evaulated.
The test is carried out on groups of 10 male mice of the OF 1 strain weighing about 25 g. It consists of suspending the mice by the front paws to a horizontally stretched wire. Note is first taken of the time required by a group of control animals to effect recovery i.e. to place at least one of their back paws on the wire.

mice [3] = assay: Maximum electroshock seizure (anticonvulsant action); type: in vivo, mice (OF 1); conditions: for ED50: Mus musculus, ip, 0.25 h, i.p., 15 min after administration, protection of 50% against tonic seizures
Method: This seizure is characterized in the mouse by extension of the back paws for 5 to 10 seconds. The extension is similar to that observed during the tonicoclonic seizures provoked by chemical convulsants such as pentylenetetrazol or strychnine.
The test was carried out on batches of 10 mice of the OF 1 strain weighing about 22 g. […] Fifteen minutes later, each animal received an electric shock of twice threshold intensity (about 60 volts).
This latter value is indicated by the symbol HD50 or hypnotic dose 50 and the efficacy index by the fraction: [formula]

mice [4] = assay: Pentylenetetrazol-induced seizure (anticonvulsant action); type: in vivo, mice (OF 1); conditions: Mus musculus, ip, i.p., 125 mg/kg pentylenetetrazol i.p.
Method: The purpose of this test which is carried out on mice is to determine whether the compounds of the invention, when given preventively by intraperitoneal route, are capable at certain doses of protecting some of the animals against the epileptic seizure produced by an adequate and predetermined dose of pentylenetetrazol which would be 100% fatal in the absence of the compound. The test was carried out on batches of 10 male OF 1 mice weighing about 25 g.

rats = assay: Anoxic seizure induced by gallamine triiodoethylate (antianoxic properties); type: in vivo, rats (OFA); conditions: 2 millimols/kg
From the text: The injection of a sufficient dose of a synthetic curariform substance such as gallamine triiodoethylate provokes in the rat paralysis of the diaphragm. The animal then dies by asphyxia.
Male rats of the OFA strain and weighing about 250 g. were first anesthetized with ether in order to enable tracheotomy to be performed and cortical electrodes to be inserted. Each rat was then maintained under conditions of artificial respiration by means of an appropriate apparatus and a paralysing dose of gallamine triiodoethylate was administered by intraperitoneal route to eliminate spontaneous breathing. The electrocorticogram, the electrocardiogram and the rectal temperature were registered. After a period of 30 minutes during which stabilization of the registrations was obtained the animal was treated with 2 millimols/kg of an oily solution of tri-n-propylacetic acid or an aqueous solution of one of its alkali metal salts. The artificial respiratory apparatus was stopped 5 minutes after treatment and note was taken of the cardiac frequency every 10 seconds as well as of the period of time between the stopping of the apparatus and the appearance of the flat tracing on the electrocorticogram. This period of time represents the period of survival of the animal. The value of the cardiac frequency corresponding to moment of appearance of the flat tracing was calculated by extrapolation.
The same test was performed on control animals but without administration of a compound of the invention.

Row | SMILES | TD50 at 0.5 h [1] [mg/kg] | ED50 (mice [2]; Mus musculus, ip, 0.5 h, i.p., 30 min. after administration, read-out: ED50, loss of traction reflex) [mg/kg] | Activity index: NTD50/ED50 (mice [2]; rota rod NTD50 / traction ED50, 30 minutes after administration) | ED50 (mice [3]) [mg/kg] | Efficacy index (HD50 compared with ED50) (mice [3]; electroshock ED50 versus hypnotic dose 50) | ED50 (mice [4]; 0.125 h, 7 min. 30 sec after administration) [mg/kg] | ED50 (mice [4]; 0.25 h, 15 min. after administration) [mg/kg] | ED50 (mice [4]; 0.5 h, 30 min. after administration) [mg/kg] | Increase of period of survival versus controls (rats) [%] | Period of survival (rats; controls 74.3 ± 2.3) [s] | Cardiac frequency when the flat tracing appears (rats; controls 150, calculated by extrapolation)
1 | Cc1ccccc1OCC(O)CO (stereo not drawn) [Mephenesin, reference compound] | 100 | 250 | 0.4 |  |  |  |  |  |  |  | 
2 | CCC1(c2ccccc2)C(=O)NC(=O)NC1=O [Phenobarbital, reference compound] |  |  |  | 78 | 1.3 |  |  |  |  |  | 
3 | CCCC(CCC)(CCC)C(=O)O [Tri-n-propylacetic acid, tri-n-propylacetic acid] |  |  |  | 145 |  | 87 | 72 | 124 | 19 | 87.9 ± 3.7 | 109
